Assay in all cases: relative viability (nuclei count vs DMSO), 5 days (fraction); higher = more cells survive
Compound in test [1]: CN(C)C/C=C/C(=O)Nc1cc2c(Nc3ccc(F)c(Cl)c3)ncnc2cc1O[C@H]1CCOC1 [Afatinib] + CS(=O)(=O)N1CCN(Cc2cc3nc(-c4cccc5[nH]ncc45)nc(N4CCOCC4)c3s2)CC1 [Pictilisib] (partner 1 µM)
Summed up: (§1)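 Lung cancer cell lines were seeded in 1536-well plates and dosed by pin tool the next day, with either a single drug or a fixed anchor-drug dose combined with five library-drug doses (not always all listed) spaced in √10 steps. Five days later, one step fixed the cells and stained their nuclei (final 0.05% Triton X-100, 1% formaldehyde, 1 ug/ml Hoechst), and nuclei were counted on 4× images. Relative viability is the nuclei count in treated wells divided by the count in vehicle wells, and each value is the median of duplicate plates.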

Compound in test [2]: CN(C)C/C=C/C(=O)Nc1cc2c(Nc3ccc(F)c(Cl)c3)ncnc2cc1O[C@H]1CCOC1 [Afatinib] + N=C(N)NC(=N)NCCc1ccccc1 [Phenformin] (partner 250 µM)
Put shortly: as §1

Compound in test [3]: CN(C)C/C=C/C(=O)Nc1cc2c(Nc3ccc(F)c(Cl)c3)ncnc2cc1O[C@H]1CCOC1 [Afatinib] + CC(=O)c1c(C)c2cnc(Nc3ccc(N4CCNCC4)cn3)nc2n(C2CCCC2)c1=O [Palbociclib] (partner 0.5 µM)
Put shortly:
as §1

Compound in test [4]: CN(C)C/C=C/C(=O)Nc1cc2c(Nc3ccc(F)c(Cl)c3)ncnc2cc1O[C@H]1CCOC1 [Afatinib] + Nc1ncn([C@H]2C[C@H](O)[C@@H](CO)O2)c(=O)n1 [Decitabine] (partner 2 µM)
Summed up:
as §1

NCI-H1792: the relative viability in test [1] (first compound 0.005 µM) was 0.303; in test [1] (first compound 0.01581 µM) it was 0.325; in test [1] (first compound 0.05 µM), 0.255; in test [1] (first compound 0.1581 µM) it was 0.241; in test [1] (first compound 0.5 µM) it was 0.243; in test [2] (first compound 0.005 µM), 0.16. Besides, the relative viability is 0.198 in test [2] (first compound 0.01581 µM); 0.398 in test [2] (first compound 0.05 µM); 0.2 in test [2] (first compound 0.1581 µM); 0.238 in test [2] (first compound 0.5 µM); 0.73 in test [3] (first compound 0.005 µM); 0.661 in test [3] (first compound 0.01581 µM). The relative viability in test [3] (first compound 0.05 µM) worked out at 0.63; in test [3] (first compound 0.1581 µM), 0.599; in test [3] (first compound 0.5 µM) it was 0.651; in test [4] (first compound 0.005 µM), 0.505; in test [4] (first compound 0.01581 µM) it was 0.592; in test [4] (first compound 0.05 µM) it was 0.489. Also, the relative viability worked out at 0.522 in test [4] (first compound 0.1581 µM) and 0.513 in test [4] (first compound 0.5 µM).
Turning to NCI-H2023, the relative viability stood at 0.248 in test [1] (first compound 0.005 µM); 0.233 in test [1] (first compound 0.01581 µM); 0.261 in test [1] (first compound 0.05 µM); 0.216 in test [1] (first compound 0.1581 µM); 0.239 in test [1] (first compound 0.5 µM); 0.436 in test [2] (first compound 0.005 µM). Further, the relative viability in test [2] (first compound 0.01581 µM) came to 0.382; in test [2] (first compound 0.05 µM) it was 0.412; in test [2] (first compound 0.1581 µM) it was 0.291; in test [2] (first compound 0.5 µM) it was 0.375; in test [3] (first compound 0.005 µM) it was 0.382; in test [3] (first compound 0.01581 µM), 0.333. The relative viability in test [3] (first compound 0.05 µM) was 0.284; in test [3] (first compound 0.1581 µM) it was 0.265; in test [3] (first compound 0.5 µM), 0.275; in test [4] (first compound 0.005 µM) it was 0.234; in test [4] (first compound 0.01581 µM), 0.197; in test [4] (first compound 0.05 µM) it was 0.211. In addition, the results for the relative viability in test [4] (first compound 0.1581 µM) and in test [4] (first compound 0.5 µM) were 0.2 and 0.234, respectively.
For the cell line COR-L 105, the relative viability in test [1] (first compound 0.005 µM) worked out at 0.359; in test [1] (first compound 0.01581 µM), 0.355; in test [1] (first compound 0.05 µM), 0.302; in test [1] (first compound 0.1581 µM), 0.252; in test [1] (first compound 0.5 µM) it was 0.35; in test [2] (first compound 0.005 µM), 0.294. Further, the relative viability in test [2] (first compound 0.01581 µM) came to 0.22; in test [2] (first compound 0.05 µM), 0.211; in test [2] (first compound 0.1581 µM) it was 0.203; in test [2] (first compound 0.5 µM), 0.249; in test [3] (first compound 0.005 µM), 0.398; in test [3] (first compound 0.01581 µM), 0.355. The relative viability in test [3] (first compound 0.05 µM) was determined as 0.3; in test [3] (first compound 0.1581 µM) it was 0.36; in test [3] (first compound 0.5 µM) it was 0.352; in test [4] (first compound 0.005 µM) it was 0.552; in test [4] (first compound 0.01581 µM), 0.433; in test [4] (first compound 0.05 µM) it was 0.415. The relative viability in test [4] (first compound 0.1581 µM) stood at 0.338; in test [4] (first compound 0.5 µM), 0.356.
Regarding NCI-H1734, the relative viability is 0.479 in test [1] (first compound 0.005 µM); 0.467 in test [1] (first compound 0.01581 µM); 0.486 in test [1] (first compound 0.05 µM); 0.438 in test [1] (first compound 0.1581 µM); 0.416 in test [1] (first compound 0.5 µM); 0.419 in test [2] (first compound 0.005 µM). Besides, the relative viability in test [2] (first compound 0.01581 µM) was found to be 0.383; in test [2] (first compound 0.05 µM) it was 0.412; in test [2] (first compound 0.1581 µM), 0.351; in test [2] (first compound 0.5 µM), 0.405; in test [3] (first compound 0.005 µM) it was 0.369; in test [3] (first compound 0.01581 µM) it was 0.34. Besides, the relative viability in test [3] (first compound 0.05 µM) came out at 0.298; in test [3] (first compound 0.1581 µM), 0.339; in test [3] (first compound 0.5 µM), 0.319; in test [4] (first compound 0.005 µM) it was 0.542; in test [4] (first compound 0.01581 µM) it was 0.538; in test [4] (first compound 0.05 µM), 0.47. The results for the relative viability in test [4] (first compound 0.1581 µM) and in test [4] (first compound 0.5 µM) were 0.491 and 0.489, respectively.
As to NCI-H3122, the relative viability stood at 0.558 in test [1] (first compound 0.005 µM); 0.628 in test [1] (first compound 0.01581 µM); 0.663 in test [1] (first compound 0.05 µM); 0.557 in test [1] (first compound 0.1581 µM); 0.621 in test [1] (first compound 0.5 µM); 0.385 in test [2] (first compound 0.005 µM). The relative viability in test [2] (first compound 0.01581 µM) came out at 0.382; in test [2] (first compound 0.05 µM), 0.415; in test [2] (first compound 0.1581 µM), 0.363; in test [2] (first compound 0.5 µM) it was 0.423; in test [3] (first compound 0.005 µM), 0.179; in test [3] (first compound 0.01581 µM) it was 0.184. The relative viability in test [3] (first compound 0.05 µM) was 0.174; in test [3] (first compound 0.1581 µM), 0.182; in test [3] (first compound 0.5 µM), 0.187; in test [4] (first compound 0.005 µM), 0.38; in test [4] (first compound 0.01581 µM), 0.439; in test [4] (first compound 0.05 µM) it was 0.424. Further, the relative viability in test [4] (first compound 0.1581 µM) came out at 0.433; in test [4] (first compound 0.5 µM), 0.418.
In the case of HCC-78, the relative viability was found to be 0.207 in test [1] (first compound 0.005 µM); 0.189 in test [1] (first compound 0.01581 µM); 0.19 in test [1] (first compound 0.05 µM); 0.218 in test [1] (first compound 0.1581 µM); 0.173 in test [1] (first compound 0.5 µM); 0.892 in test [2] (first compound 0.005 µM). For the same cell line, the relative viability in test [2] (first compound 0.01581 µM) was 0.515; in test [2] (first compound 0.05 µM) it was 0.593; in test [2] (first compound 0.1581 µM) it was 0.648; in test [2] (first compound 0.5 µM), 0.559; in test [3] (first compound 0.005 µM), 0.46; in test [3] (first compound 0.01581 µM), 0.41. Also, the relative viability in test [3] (first compound 0.05 µM) was 0.452; in test [3] (first compound 0.1581 µM) it was 0.594; in test [3] (first compound 0.5 µM), 0.461; in test [4] (first compound 0.005 µM), 0.726; in test [4] (first compound 0.01581 µM), 0.607; in test [4] (first compound 0.05 µM), 0.616. The relative viability in test [4] (first compound 0.1581 µM) was 0.635; in test [4] (first compound 0.5 µM), 0.651.
In the case of NCI-H2085, the relative viability in test [1] (first compound 0.005 µM) is 0.486; in test [1] (first compound 0.01581 µM), 0.438; in test [1] (first compound 0.05 µM) it was 0.459; in test [1] (first compound 0.1581 µM) it was 0.494; in test [1] (first compound 0.5 µM) it was 0.435; in test [2] (first compound 0.005 µM), 0.614. Besides, the relative viability in test [2] (first compound 0.01581 µM) stood at 0.629; in test [2] (first compound 0.05 µM) it was 0.606; in test [2] (first compound 0.1581 µM), 0.509; in test [2] (first compound 0.5 µM), 0.542; in test [3] (first compound 0.005 µM) it was 0.445; in test [3] (first compound 0.01581 µM), 0.448. Also, the relative viability in test [3] (first compound 0.05 µM) turned out to be 0.42; in test [3] (first compound 0.1581 µM), 0.36; in test [3] (first compound 0.5 µM), 0.419; in test [4] (first compound 0.005 µM), 0.577; in test [4] (first compound 0.01581 µM) it was 0.522; in test [4] (first compound 0.05 µM), 0.519. For the same cell line, the relative viability in test [4] (first compound 0.1581 µM) turned out to be 0.517; in test [4] (first compound 0.5 µM), 0.515.

The values are drawn from the supplement of paper PMC10307832.
